Reference: the supplement of paper PMC10307832

Experiments:
Experiment in all cases: relative viability (nuclei count vs DMSO), 5 days (fraction); higher = more cells survive
[1] = compound: C1CC(C2=C(C1)C3=C(N2)C=CC(=C3)Cl)C(=O)N [Selisistat]
Outline: (§1)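 Viability here means nuclei in treated wells divided by nuclei in vehicle wells, reported as the median across plates. Only plates with control CV below 25% and at least one doubling passed. Lung cancer cell lines in 1536-well plates were exposed to five √10-spaced library-drug doses for 5 days and counted from 4× Hoechst images in MetaXpress.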

[2] = compound: c1ccc2c(CCNc3ccc(Nc4ccncc4)cc3)c[nH]c2c1 [Serdemetan]
Outline: as §1

[3] = compound: C1CC(C2=C(C1)C3=C(N2)C=CC(=C3)Cl)C(=O)N [Selisistat] + CC1(C)CCC(c2ccc(Cl)cc2)=C(CN2CCN(c3ccc(C(=O)NS(=O)(=O)c4ccc(N[C@H](CCN5CCOCC5)CSc5ccccc5)c(S(=O)(=O)C(F)(F)F)c4)cc3)CC2)C1 [Navitoclax] (partner 0.5 µM)
Outline: (§2)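 The day after seeding in 1536-well plates, lung cancer cell lines were treated by pin tool with a single drug, or with a fixed anchor-drug dose together with five library-drug doses (not always all listed) in √10 steps. After 5 days, a combined fix-and-stain solution (final 0.05% Triton X-100, 1% formaldehyde, 1 ug/ml Hoechst) was added. Nuclei counted on 4× images gave relative viability as treated counts over vehicle counts, reported as the median of duplicate plates.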

[4] = compound: c1ccc2c(CCNc3ccc(Nc4ccncc4)cc3)c[nH]c2c1 [Serdemetan] + N=C(N)NC(=N)NCCc1ccccc1 [Phenformin] (partner 250 µM)
Outline: as §2

Cell Line	relative viability ([1]; 0.4 µM)	relative viability ([1]; 1.265 µM)	relative viability ([1]; 4 µM)	relative viability ([1]; 12.65 µM)	relative viability ([1]; 40 µM)	relative viability ([2]; 0.04 µM)	relative viability ([2]; 0.1265 µM)	relative viability ([2]; 0.4 µM)	relative viability ([2]; 1.265 µM)	relative viability ([2]; 4 µM)	relative viability ([3]; first compound 0.4 µM)	relative viability ([3]; first compound 1.265 µM)	relative viability ([3]; first compound 4 µM)	relative viability ([3]; first compound 12.65 µM)	relative viability ([3]; first compound 40 µM)	relative viability ([4]; first compound 0.04 µM)	relative viability ([4]; first compound 0.1265 µM)	relative viability ([4]; first compound 0.4 µM)	relative viability ([4]; first compound 1.265 µM)	relative viability ([4]; first compound 4 µM)
201T	1.02	0.996	0.875	1.01	0.996	0.983	0.987	0.937	0.919	0.919	1.21	1.17	1.16	1.25	1.25	0.435	0.451	0.432	0.353	0.432
HCC-44	1.01	0.738	1.08	0.982	1.06	0.935	0.982	0.944	0.854	0.962	1.03	0.955	0.911	0.997	1.02	0.21	0.236	0.21	0.136	0.213
NCI-H596	1.08	0.994	0.849	1.03	0.983	1.03	0.981	0.989	0.76	0.768	0.952	0.959	0.944	0.904	0.895	0.812	0.692	0.735	0.63	0.438
H3255	0.984	0.943	0.978	0.948	1.03	0.968	0.944	0.987	0.787	0.896	0.512	0.643	0.293	0.438	0.511	0.348	0.387	0.358	0.351	0.397
NCI-H647	0.958	0.964	0.826	0.959	1.03	0.905	0.964	0.964	0.819	0.655	1.11	–	–	0.993	1.13	0.583	0.669	0.511	0.288	0.335
NCI-H2023	0.952	0.966	0.828	0.876	0.934	0.884	1.09	0.932	0.424	0.345	1.03	0.986	0.989	0.948	0.92	0.395	0.413	0.351	0.254	0.205
NCI-H23	0.989	0.941	–	0.906	1.08	0.972	1.17	1.11	0.817	1.04	0.853	0.936	–	0.943	0.876	0.855	0.752	0.887	0.56	0.746
NCI-H1944	1.11	0.92	–	0.858	0.975	0.95	0.918	0.858	0.469	0.738	1.1	0.998	–	1.04	0.927	0.197	0.213	0.202	0.128	0.154
NCI-H1793	0.968	0.846	–	0.956	0.942	1.03	0.873	0.562	0.471	0.572	0.446	0.326	–	0.472	0.545	0.378	0.293	0.247	0.236	0.26
NCI-H520	0.978	0.939	0.995	0.937	0.877	0.929	0.977	0.951	0.633	0.856	1.06	0.959	1.18	1.13	1.03	0.513	0.657	0.596	–	0.38
A549	1.05	0.901	0.952	0.898	0.982	0.907	0.938	0.932	0.778	0.59	1.27	1.14	1.34	1.28	1.28	0.0903	0.163	0.209	0.0895	0.0987
NCI-H460	0.986	0.961	0.933	0.968	1.03	0.936	0.962	0.926	0.77	0.316	1.2	1.16	–	1.08	1.3	0.47	0.505	0.446	0.145	0.09
EKVX	1.05	0.993	0.788	0.902	0.92	0.987	0.987	0.647	0.627	0.891	0.905	0.918	0.745	0.874	0.945	0.225	0.243	0.14	–	0.241
EPLC-272H	0.966	1.03	–	0.931	1.04	1.17	1.09	0.897	0.833	0.912	1.07	1.16	–	1.23	1.25	0.344	0.295	0.301	0.278	0.294
NCI-H1395	1.02	0.883	0.701	0.863	0.9	0.869	1.02	0.927	0.804	0.61	1.19	1.14	1.07	1.13	0.937	0.448	0.448	0.471	0.388	0.332
NCI-H2126	1.08	1.05	0.833	0.999	1.02	1.02	1.05	0.96	0.948	1.02	0.888	0.837	0.829	0.899	0.913	0.555	0.557	0.535	0.512	0.527
LXF-289	1.05	1.03	0.867	0.949	1.07	1.02	0.996	0.933	0.84	0.885	0.95	0.966	0.895	0.901	0.92	0.483	0.522	0.5	0.457	0.517
